Experimental findings from ChEMBL document CHEMBL1157910, “Structural requirement(s) of N-phenylthioureas and benzaldehyde thiosemicarbazones as inhibitors of melanogenesis in melanoma B 16 cells” (Bioorg Med Chem Lett, 2010) are described below.

Experiment [1] concerns B16. The experiment in a line: Inhibition of melanogenesis in mouse B16 cells at 10 uM. In kind it is functional.
The subject of experiment [2] is B16. The experiment can be described thus: Inhibition of melanogenesis in mouse B16 cells. In kind it is functional, cell-based.
For experiment [3], the system named is B16. The experiment can be described thus: Selectivity ratio for inhibition of melanogenesis in mouse B16 cell of compound to N-phenylthiourea. In kind it is functional.

`CCc1ccccc1NC(N)=S`: the inhibition – broadly, the share of the control response that was lost under treatment – at 10 µM in the experiment on B16 [1] was < 10%. Further, in the experiment with B16 [2], the IC50 (in general, the concentration needed to halve the response being measured) is > 10 µM.

On to `NC(=S)Nc1ccccc1CO`, for which the inhibition at 10 µM with B16 [1] is < 10%. Besides, the IC50 with B16 [2] was > 10 µM.

Regarding `NC(=S)NCc1ccccc1`, the inhibition at 10 µM in the experiment with B16 [1] is < 10%. The IC50 in the experiment with B16 [2] is > 10 µM.

As to `NC(=S)NCCc1ccccc1`, in the experiment on B16 [1], the inhibition at 10 µM was < 10%. In addition, in the experiment with B16 [2], the IC50 is > 10 µM.

Consider `NC(=S)NCCCc1ccccc1`, for which the inhibition at 10 µM in the experiment with B16 [1] was < 10%. Besides, the IC50 in the experiment on B16 [2] is > 10 µM.

Turning to `NC(=S)NCCCCc1ccccc1`, in the experiment on B16 [1], the inhibition at 10 µM is < 10%. Further, in the experiment on B16 [2], the IC50 is > 10 µM.

Molecule `Cc1ccc(NC(N)=S)cc1` gave an inhibition at 10 µM in the experiment with B16 [1] of 83%. The molecule also came in with an IC50 with B16 [2] of 5.5 µM.

In the case of `CCc1ccc(NC(N)=S)cc1`, the inhibition at 10 µM with B16 [1] was found to be 88%. The molecule also displayed an IC50 in the experiment with B16 [2] of 4.9 µM.

On to `CC(C)(C)c1ccc(NC(N)=S)cc1`, for which, in the experiment on B16 [1], the inhibition at 10 µM was 95%. Half-maximal inhibition in the experiment with B16 [2] (IC50) was put at 3.7 µM.

As for `NC(=S)Nc1ccc(Cl)cc1`, the inhibition at 10 µM in the experiment with B16 [1] stood at 84%. Besides, the IC50 with B16 [2] was found to be 4 µM.

In the case of `NC(=S)Nc1ccc(O)cc1`, the inhibition at 10 µM with B16 [1] was determined as 70%. Besides, in the experiment on B16 [2], the IC50 came out at 6.3 µM.

For the molecule `Cc1cccc(NC(N)=S)c1`, the inhibition at 10 µM with B16 [1] stood at 78%. Moreover, in the experiment on B16 [2], the midpoint of inhibition, the IC50, lay at 5 µM.

In the case of `Cc1ccccc1NC(N)=S`, the inhibition at 10 µM in the experiment with B16 [1] was < 10%. Further, in the experiment with B16 [2], the IC50 is > 10 µM.

In the case of `COc1ccc(NC(N)=S)cc1`, in the experiment on B16 [1], the inhibition at 10 µM is 80%. Further, half-maximal inhibition in the experiment with B16 [2] (IC50) was put at 5.6 µM.

In the case of `CC(C)(C)c1ccccc1NC(N)=S`, the inhibition at 10 µM with B16 [1] is < 10%. Besides, the IC50 with B16 [2] was > 10 µM.

Turning to `COc1ccccc1NC(N)=S`, in the experiment with B16 [1], the inhibition at 10 µM was < 10%. Also, the IC50 in the experiment on B16 [2] was > 10 µM.

`Cc1ccc(/C=N/NC(N)=S)cc1`: 10 µM produced 64% inhibition with B16 [1]. Further, the midpoint of inhibition in the experiment on B16 [2], the IC50, lay at 6.8 µM.

Take `CCc1ccc(/C=N/NC(N)=S)cc1`: the inhibition at 10 µM in the experiment with B16 [1] is 100%. For the same molecule, the Ratio in the experiment with B16 [3] amounted to 2. This molecule showed an IC50 in the experiment on B16 [2] of 3.4 µM.

`NC(=S)N/N=C/c1ccccc1` [PHENYLTHIOSEMICARBAZONE]: the inhibition at 10 µM in the experiment on B16 [1] was < 10%. The IC50 with B16 [2] is > 10 µM.

For `NC(=S)Nc1ccccc1` [PHENYLTHIOUREA], the inhibition at 10 µM with B16 [1] was 84%. This molecule also gave an IC50 in the experiment with B16 [2] of 5.4 µM.
